Source: US20240239814A1, “Complexes Of CU(I) As Antitumor Agents” (priority 2021, published 2024)
Read-outs that look alike come from different tables or passages of the source. Marks after values point to notes of the source that are not given here.

Legend:
[1] = tested on: human colon carcinoma cells HCT-15; test: MTT cytotoxicity assay, 72 h, HCT-15; assay type: cell-based; details: MTT test, mean ± SD
Description: (§1) Human breast (MCF-7), lung (H157), pancreatic (PSN-1) and colon (HCT-15 and LoVo) carcinoma cell lines were obtained from the American Type Culture Collection (ATCC, Rockville, MD). A431 are human cervical carcinoma cells kindly provided by Prof. F. Zunino (Molecular Pharmacology Unit, Experimental Oncology and Molecular Medicine, Istituto Nazionale dei Tumori, Milan, Italy). […] G. Marverti (Dept. of Biomedical Science, University of Modena, Italy).
(§2) Briefly, depending upon the growth characteristics of the cell line, 3-8×10^3 cells well^−1, were seeded in 96-well microplates in growth medium (100 μL) and then incubated at 37° C. in a 5% carbon dioxide atmosphere. After 24 h, the medium was removed and replaced with a fresh one containing the compound to be studied, at the appropriate concentration, dissolved in 0.9% sodium chloride solution just before use. Triplicate cultures were established for each treatment. After 72 h, each well was treated with 10 μL of a 5 mg mL^−1 MTT saline solution and, after 5 h of incubation, 100 μL of a sodium dodecylsulfate (SDS) solution in 0.01 M HCl were added. After an overnight incubation, the inhibition of cell growth induced by the tested complexes was determined by measuring the absorbance of each well at 570 nm using a Bio-Rad 680 microplate reader. Mean absorbance for each drug dose was expressed as percentage of the control and plotted vs. drug concentration. Dose-response curves were fitted and IC50 values were calculated with four parameter logistic model (4PL).
(§3) The cytotoxicity was evaluated by means of the MTT test for 72 h treatment with increasing concentrations of the tested compounds.
(§4) Cytotoxic activity was examined against a panel of human tumor cell lines. […] The growth inhibitory effect was evaluated by means of MTT test. Cells (5-8×10^3 mL^−1, depending on the growth characteristics of the cell line) were treated for 72 h with increasing concentrations of tested compounds. […] SD=standard deviation, -=not detected.

[2] = tested on: human pancreatic carcinoma cells PSN-1; test: MTT cytotoxicity assay, 72 h, PSN-1; assay type: cell-based; details: MTT test, mean ± SD
Description: as §1, §2, §3, §4

[3] = tested on: human ovarian cancer cells 2008; test: MTT cytotoxicity assay, 72 h, 2008
Description: as §1, §2, §3, §4, §3, §4

[4] = tested on: human lung carcinoma cells H157; test: MTT cytotoxicity assay, 72 h, H157; assay type: cell-based; details: MTT test, mean ± SD
Description: as §1, §2, §3, §4

[5] = tested on: murine Lewis lung carcinoma (LLC); test: In vivo anticancer activity toward Lewis lung carcinoma; design: species or system C57BL mice; details: for Average tumor weight (mean ± SD, g) / Inhibition of tumor growth (%): daily i.p. from day 9, measured at day 15, 6: 5 mg kg^−1, 9: 3 mg kg^−1, cisplatin: 1.5 mg kg^−1; for Inhibition of tumor growth (%): referred to control animals
Experimental: (§5) The mice were purchased from Charles River, Italy, housed in steel cages under controlled environmental conditions (constant temperature, humidity, and 12 h dark/light cycle), and alimented with commercial standard feed and tap water ad libitum. Animals were observed daily, and body weight and food intake recorded. The Lewis lung carcinoma (LLC) cell line was purchased from ECACC, UK. The LLC cell line was maintained in D-MEM (Euroclone) supplemented with 10% heat-inactivated FBS (Euroclone), 10 mM L-glutamine, 100 U mL^−1 penicillin, and 100 μg mL^−1 streptomycin in a 5% CO2 air incubator at 37° C. […] At day 15, animals were sacrificed, the legs were amputated at the proximal end of the femur, and the inhibition of tumor growth was determined according to the difference in weight of the tumor-bearing leg and the healthy leg of the animals expressed as % referred to the control animals. Body weight was measured every two days and was taken as a parameter for systemic toxicity. All the values are the means±S.D. of not less than three measurements. Multiple comparisons were made by Tukey-Kramer test (** p<0.01; * p or °p<0.05).
(§6) For the assessment of the adverse side effects, changes in body weights of tumor-bearing mice were monitored daily (FIG. 1).
Starting from day 9 after tumor implantation, tested compounds were daily administered i.p. At day 15, mice were sacrified and tumor growth was detected as described above.

[6] = Experimental: as §5, §6
[7] = tested on: human cervical carcinoma cells A431; test: MTT cytotoxicity assay, 72 h, A431; assay type: cell-based; details: MTT test, mean ± SD
Description: as §1, §2, §3, §4

[8] = tested on: human breast carcinoma cells MCF-7; test: MTT cytotoxicity assay, 72 h, MCF-7; assay type: cell-based; details: MTT test, mean ± SD
Description: as §1, §2, §3, §4

LoVo-OXP cells = test: MTT cytotoxicity assay, 72 h, LoVo-OXP (oxaliplatin resistant); assay type: cell-based, human; details: MTT test, mean ± SD
Description: as §1, §2
(§7) A LoVo cell line retaining a multidrug resistance phenotype was also considered (LoVo MDR). Cross-resistance profiles were evaluated by means of the resistance factor (RF), which is defined as the ratio between the IC50 value for the resistant cells and that arising from the sensitive cells (Table 3).
Cells (5×10^3 mL-1) were treated for 72 h with increasing concentrations of tested compounds. Cytotoxicity was assessed by MTT test. […] Resistant Factor (in brackets) is defined as IC50 resistant/parent line.

LoVo MDR cells = test: MTT cytotoxicity assay, 72 h, LoVo MDR (multidrug resistant); assay type: cell-based, human; details: MTT test, mean ± SD
Description: as §1, §2, §7
Cells (5×10^3 mL-1) were treated for 72 h with increasing concentrations of tested compounds. Cytotoxicity was assessed by MTT test. […] Resistant Factor (in brackets) is defined as IC50 resistant/parent line. […]

[9] = tested on: human colon cancer cells LoVo; test: MTT cytotoxicity assay, 72 h, LoVo; assay type: cell-based; details: MTT test, mean ± SD
Experimental: Triplicate cultures were established for each treatment.
as §7, with “. A” for “A”
Cytotoxicity was assessed by MTT test. […]. Resistant Factor (in brackets) is defined as IC50 resistant/parent line.

[10] = tested on: panel of human tumor cell lines; test: Average cytotoxic activity over the cell panel (MTT) compared with reference drugs; details: on average over the cell panel
Experimental: as §2, §3
Cytotoxic activity was examined against a panel of human tumor cell lines. […] The growth inhibitory effect was evaluated by means of MTT test. […] SD=standard deviation, -=not detected.

[11] = read-out: IC50 2008, MTT test, mean ± SD, Table 1
[12] = read-out: IC50 2008, MTT test, mean ± SD, Table 2

Molecule	IC50 [1] [nM]	IC50 [2] [µM]	IC50 [3, 11] [nM]	IC50 [4] [nM]	IC50 [3, 12] [nM]	IC50 [7] [µM]	IC50 [8] [nM]	IC50 (LoVo-OXP cells) [nM]	IC50 (LoVo MDR cells) [nM]	IC50 [9] [nM]	further results
Bis[tris(N-methylpiperazineN′- methyl)phosphine]copper(I) tetrafluoroborate [Compound 5]	8000 ± 2600	7.3 ± 1.4	5200 ± 1700	4300 ± 1200	–	–	–	–	–	–	–
N.N.[Cl][Pt][Cl] [cisplatin, cis-diamminedichloroplatinum(II), reference compound]	15300 ± 2600	18.3 ± 3.1	2200 ± 500	2100 ± 900	2200 ± 500	2.1 ± 0.8	7600 ± 200	–	–	–	Average tumor weight (mean ± SD, g) [5]: 0.119 ± 0.10** g; Inhibition of tumor growth (%) [5]: 79.8%; body weight loss ([6]; mouse, in vivo, ip): > 20%
F[B-](F)(F)F.O=S(=O)(O)c1ccccc1P(c1ccccc1)c1ccccc1.O=S(=O)(O)c1ccccc1P(c1ccccc1)c1ccccc1.[Cu+] [Compound 14, Bis[2-(diphenylphosphino]benzenesulfonic acid]copper(I) tetrafluoroborate]	–	–	–	–	800 ± 200	–	–	–	–	–	–
O=C1[O][Pt]2([NH][C@@H]3CCCC[C@H]3[NH]2)[O]C1=O [oxaliplatin, cyclohexane-1,2-diamineethanedioatoplatinum(II), reference compound]	1300 ± 300	16.1 ± 2.5	1700 ± 1000	11800 ± 3200	1700 ± 1000	3.7 ± 1	3400 ± 1200	17500 ± 1800	1400 ± 800	3100 ± 300	–
Bis[tris(morpholineN- methyl)phosphine]copper(I) tetrafluoroborate [Compound 7]	6400 ± 500	12.3 ± 1.5	9200 ± 1000	8400 ± 1800	–	15 ± 2.2	6100 ± 1500	400 ± 200	400 ± 300	600 ± 300	–
COc1cccc2c1C(=O)c1c(O)c3c(c(O)c1C2=O)C[C@@](O)(C(=O)CO)C[C@@H]3O[C@H]1C[C@H](N)[C@H](O)[C@H](C)O1 [doxorubicin, reference compound]	–	–	–	–	–	–	–	–	–	–	IC50 (LoVo MDR cells; Homo sapiens, LoVo): 19400 ± 2200 nM; IC50 ([9]; Homo sapiens, LoVo): 1100 ± 500 nM
Bis[tris(4- methylphenyl)phosphine] copper(I) nitrate [Compound 2]	500 ± 200	0.3 ± 0.08	1300 ± 300	3400 ± 200	–	3 ± 1.4	3100 ± 600	1300 ± 500	900 ± 600	1400 ± 100	–
Bis[tris(N-EthylpiperazineN′- methyl)phosphine]copper(I) tetrafluoroborate [Compound 6]	2500 ± 100	13.3 ± 3.2	14500 ± 1200	3800 ± 300	–	7.7 ± 0.5	3100 ± 900	1300 ± 500	1200 ± 900	700 ± 300	Average tumor weight (mean ± SD, g) [5]: 0.142 ± 0.09** g; Inhibition of tumor growth (%) [5]: 75.9%
F[B-](F)(F)F.Oc1ccccc1P(c1ccccc1)c1ccccc1.Oc1ccccc1P(c1ccccc1)c1ccccc1.[Cu+] [Compound 12, Bis[diphenyl(2-hydroxyphenyl)phosphine] copper(I)tetrafluoroborate]	–	–	–	–	1100 ± 300	–	–	–	–	–	–
Bis[tris(4- fluorophenyl)phosphine] copper(I) nitrate [Compound 4]	1100 ± 500	6.2 ± 0.9	1900 ± 500	900 ± 100	–	0.8 ± 0.6	1400 ± 300	700 ± 100	1000 ± 100	900 ± 300	–
F[B-](F)(F)F.O=Cc1ccccc1P(c1ccccc1)c1ccccc1.O=Cc1ccccc1P(c1ccccc1)c1ccccc1.[Cu+] [Compound 9, Bis[2-(diphenylphosphanyl)benzaldehyde]copper(I) tetrafluoroborate]	800 ± 200	1.1 ± 0.5	600 ± 100	1500 ± 200	–	4.7 ± 0.6	1300 ± 300	1100 ± 600	800 ± 500	600 ± 200	reduction of the tumor mass ([5]; 3 mg kg^−1 daily i.p., day 15): 83%; Average tumor weight (mean ± SD, g) [5]: 0.098 ± 0.06** g; Inhibition of tumor growth (%) [5]: 83.4%; tolerability compared with cisplatin ([6]; doses 5 and 3 mg kg^−1 represent ⅓ of the MTD): better tolerated than cisplatin; average cytotoxic activity relative to cisplatin ([10]; times more effective than cisplatin): 4.8 times; average cytotoxic activity relative to oxaliplatin ([10]; times more effective than oxaliplatin): 3.8 times
Bis[tris(4- methoxyphenyl)phosphine] copper(I) nitrate [Compound 3]	300 ± 200	–	500 ± 100	1200 ± 10	–	3.1 ± 1.1	1300 ± 400	–	900 ± 200	–	–
F[B-](F)(F)F.O=C(O)c1ccccc1P(c1ccccc1)c1ccccc1.O=C(O)c1ccccc1P(c1ccccc1)c1ccccc1.[Cu+] [Compound 10, Bis[2-(diphenylphosphanyl)benzoic acid]copper(I) tetrafluoroborate]	1800 ± 600	0.6 ± 0.01	300 ± 100	900 ± 100	–	3.8 ± 1.1	1100 ± 200	90 ± 30	900 ± 400	1500 ± 400	–
COc1ccccc1P(c1ccccc1)c1ccccc1.COc1ccccc1P(c1ccccc1)c1ccccc1.F[B-](F)(F)F.[Cu+] [Compound 11, Bis[diphenyl(2-methoxyphenyl)phosphine] copper(I)tetrafluoroborate]	–	–	–	–	400 ± 300	–	–	–	–	–	cytotoxicity against human ovarian cancer cells compared with cisplatin and oxaliplatin ([3]; 2008 cells, MTT): the most cytotoxic derivative
Bis[tris(thiomorpholineN- methyl)phosphine]copper(I) tetrafluoroborate [Compound 8]	10200 ± 100	7.7 ± 1.3	11900 ± 100	5300 ± 1200	–	–	–	–	–	–	–
Bis[tris(phenylphosphine)] copper(I) nitrate [Compound 1]	1800 ± 800	4.5 ± 1.8	2200 ± 100	1600 ± 100	–	0.2 ± 0.01	1900 ± 700	300 ± 100	500 ± 200	400 ± 30	–
COCOc1ccccc1P(c1ccccc1)c1ccccc1.COCOc1ccccc1P(c1ccccc1)c1ccccc1.F[B-](F)(F)F.[Cu+] [Compound 13, Bis[diphenyl(2-(methoxymethoxy)phenyl)phosphine] copper(I)tetrafluoroborate]	–	–	–	–	1500 ± 400	–	–	–	–	–	–
